Where two headings read alike, the source gives them in different places.
Tests used:
calf thymus DNA (CT-DNA) = assay: Thermal denaturation studies with duplex-form calf thymus DNA; type: binding; details: [PND]/[DNA] molar ratio 1:5, CT-DNA 100 μM, ligand 20 μM, aqueous sodium phosphate buffer pH 7; for ΔTm after incubation at 37° C. for 0 hr: 0 hr at 37° C.; for ΔTm after incubation at 37° C. for 18 hrs: 18 hrs at 37° C.
Description: Compounds have been subjected to thermal denaturation studies with duplex-form calf thymus DNA (CT-DNA) using an modification of a reported procedure (Newman, M. S. Carcinog-compr. Surv. 1976, 1, 203; (b) Hecht, S. S.; Loy, M.; Hoffman, Carcinog-compr. Surv. 1976, 1, 325). Working solutions in aqueous buffer (10 mM NaH2PO4/Na2HPO4, 1 mM Na2EDTA, pH 7.00+0.01) containing CT-DNA (100 μm in phosphate) and the PND (pyrrolo naphtha diazepine) (20 μm) have been prepared by addition of concentrated PND (pyrrolo naphtha diazepine) solutions in DMSO to obtain a fixed [PND]/[DNA] molar ratio of 1:5. The DNA-PND (pyrrolo naphtha diazepine) solutions have been incubated at 37° C. for 0 and 18 h prior to analysis. Samples have been monitored at 260 nm using a Beckman DU-800 spectrophotometer fitted with high performance temperature controller, and heated at 1° C. min in the 40-110° C. range. DNA helix→coil transition temperatures (Tm) have been obtained from the maxima in the d(A260)/dT derivative plots. Drug-induced alterations in DNA melting behavior are given by: ΔTm=Tm(DNA+PND)−Tm(DNA alone), where the Tm value for the PND-free CT-DNA is 69.1±0.01.
The DNA binding activity for these novel substituted piperazine linked pyrrolo naphtho diazepine hybrids has been examined by thermal denaturation studies using calf thymus (CT) DNA. […] The data for some of the compounds are included in Table 1 for comparison.

[1] = test system: A549 lung cancer cell line; assay: In vitro anticancer activity, MTT assay; type: cell-based, human; details: for in-vitro cytotoxicity in lung cancer cell line (A549): result in words
Description: (§1) In vitro biological activity studies were carried out at the pharmacology division, IICT, Hyderabad. The compounds were evaluated for in vitro anticancer activity against eight tumour cell lines derived from […] cancer types (breast, lung, liver, skeletal, kidney, prostrate, small intestine) as shown in Table 2. For each compound, dose response curves for each cell line were measured at a minimum of five concentrations at 10 fold dilutions. A protocol of 48 h continuous drug exposure was used and a MTT assay was used to estimate cell viability or growth. The concentration causing 50% inhibition (IC50) compared with the control was calculated. Some of the compounds have been evaluated for their in vitro cytotoxicity in eight cell lines from seven human cancer types. The results are expressed as IC50 determined relative to that of untreated control cells (Table-2).

[2] = test system: HEPG2 liver cancer cell line; assay: In vitro anticancer activity, MTT assay; type: cell-based, human; details: for in-vitro cytotoxicity in liver cancer cell line (HEPG2): result in words
Description: as §1

[3] = test system: MCF7 breast cancer cell line; assay: In vitro anticancer activity, MTT assay; type: cell-based, human; details: for IC50: breast cancer cell line, MTT, 48 h continuous drug exposure; for in-vitro cytotoxicity in breast cancer cell line (MCF-7): result in words
Description: as §1

[4] = test system: NCIH460 large cell lung cancer cell line; assay: In vitro anticancer activity, MTT assay; type: cell-based, human; details: for IC50: large cell lung cancer cell line, MTT, 48 h continuous drug exposure; for in-vitro cytotoxicity in large cell lung cancer cell line (NCIH460): result in words
Description: as §1

[5] = test system: PC-3 prostrate cancer cell line; assay: In vitro anticancer activity, MTT assay; type: cell-based, human; details: for IC50: prostrate cancer cell line, MTT, 48 h continuous drug exposure; for in-vitro cytotoxicity in prostrate cancer cell line (PC-3): result in words
Description: as §1

[6] = In vitro anticancer activity, MTT assay; type: cell-based; details: kidney cancer cell line, MTT, 48 h continuous drug exposure
Description: as §1

[7] = test system: COS-1 kidney cancer cell line; assay: In vitro anticancer activity, MTT assay; type: cell-based; details: for IC50: COS-1, range over the listed compounds, exposure period of at least 48 hrs, read-out: IC50 against kidney cancer cell lines; for in-vitro cytotoxicity in kidney cancer cell line (COS-1): result in words
Description: as §1

[8] = test system: IEC-6 small intestine cell line; assay: In vitro anticancer activity, MTT assay; type: cell-based; details: for in-vitro cytotoxicity in small intestine cancer cell line (IEC-6): result in words
Description: as §1

[9] = test system: L-6 skeletal cancer cell line; assay: In vitro anticancer activity, MTT assay; type: cell-based; details: result in words
Description: as §1

L-6 = assay: In vitro anticancer activity, MTT assay; type: cell-based; details: skeletal cancer cell line; MTT, 48 h continuous drug exposure
Description: as §1

[10] = Homo sapiens, A549, lung cancer cell line, MTT, 48 h continuous drug exposure, read-out: IC50 A549
[11] = Homo sapiens, A549, range over the listed compounds, exposure period of at least 48 hrs, read-out: IC50 against lung cancer cell lines
[12] = Homo sapiens, HepG2, liver cancer cell line, MTT, 48 h continuous drug exposure, read-out: IC50 HEPG2
[13] = Homo sapiens, HepG2, range over the listed compounds, exposure period of at least 48 hrs, read-out: IC50 against liver cancer cell lines
[14] = IEC-6, range over the listed compounds, exposure period of at least 48 hrs, read-out: IC50 against small intestine cancer cell lines
[15] = IEC-6, small intestine cell line, MTT, 48 h continuous drug exposure, read-out: IC50 IEC-6
[16] = lung cancer cell line, MTT, 48 h continuous drug exposure, read-out: IC50 A549
[17] = liver cancer cell line, MTT, 48 h continuous drug exposure, read-out: IC50 HEPG2
[18] = small intestine cell line, MTT, 48 h continuous drug exposure, read-out: IC50 IEC-6

Row | IC50 [1, 16] [nM] | IC50 [2, 17] [nM] | IC50 [3] [nM] | IC50 [4] [nM] | IC50 [5] [nM] | IC50 ([6]; read-out: IC50 COS-1) [nM] | IC50 [8, 18] [nM] | Compound | ΔTm after incubation at 37° C. for 0 hr (calf thymus DNA (CT-DNA)) [°C] | ΔTm after incubation at 37° C. for 18 hrs (calf thymus DNA (CT-DNA)) [°C] | IC50 [1, 10] [nM] | IC50 [1, 11] [nM] | in-vitro cytotoxicity in lung cancer cell line (A549) [1] | in-vitro cytotoxicity in liver cancer cell line (HEPG2) [2] | in-vitro cytotoxicity in breast cancer cell line (MCF-7) [3] | in-vitro cytotoxicity in large cell lung cancer cell line (NCIH460) [4] | in-vitro cytotoxicity in prostrate cancer cell line (PC-3) [5] | in-vitro cytotoxicity in kidney cancer cell line (COS-1) [7] | in-vitro cytotoxicity in small intestine cancer cell line (IEC-6) [8] | in-vitro cytotoxicity in skeletal cancer cell line (L-6) [9] | IC50 (L-6) [nM] | other results
1 |  |  |  |  |  |  |  | CCN1CCN(CCOc2cc3cc4c(cc3cc2OC)N=C[C@@H]2CCCN2C4=O)CC1 [15a, 9-Methoxy-8-[2-(4-ethylpiperazino)ethoxy]-(13aS)-1,2,3,13a-tetrahydro-5H-pyrrolo[2,1-c][1,4]naphthodiazepin-5-one] | 6.1 | 7.2 | 540 | 20 to 11900 | exhibiting in-vitro cytotoxicity | exhibiting in-vitro cytotoxicity | exhibiting in-vitro cytotoxicity | exhibiting in-vitro cytotoxicity | exhibiting in-vitro cytotoxicity | exhibiting in-vitro cytotoxicity | exhibiting in-vitro cytotoxicity | exhibiting in-vitro cytotoxicity | 1870 | IC50 [2, 12]: 200 nM; IC50 [2, 13]: 20 to 7320 nM; IC50 ([3]; Homo sapiens, MCF7): 40 nM; IC50 ([4]; Homo sapiens, NCI-H460): 1250 nM; IC50 ([5]; Homo sapiens): 410 nM; IC50 ([6]; COS-1): 3660 nM; IC50 [7]: 800 to 4320 nM; IC50 [8, 14]: 10 to 5840 nM; IC50 [8, 15]: 130 nM
2 | 860 | 40 | 40 | 260 | 80 | 1870 | 20 | COc1cc2cc3c(cc2cc1OCCN1CCN(c2ncccn2)CC1)N=C[C@@H]1CCCN1C3=O [13a, 8-Methoxy-9-(2-[4-(2-pyrimidinyl)piperazino]ethoxy)-(13aS)-1,2,3,13a-tetrahydro-5H-pyrrolo[2,1-c][1,4]naphthodiazepin-5-one] | 5.0 | 6.5 |  |  | exhibiting in-vitro cytotoxicity | exhibiting in-vitro cytotoxicity | exhibiting in-vitro cytotoxicity | exhibiting in-vitro cytotoxicity | exhibiting in-vitro cytotoxicity | exhibiting in-vitro cytotoxicity | exhibiting in-vitro cytotoxicity | exhibiting in-vitro cytotoxicity | 610 | 
3 | 20 | 520 | 50 | 300 | 390 | 3060 | 20 | 8-Methoxy-9-(2-chloroethoxy)-(13aS)-1,2,3,13a-tetrahydro-5H-pyrrolo[2,1-c][1,4]naphthodiazepine-5-one [1a] | 6.2 | 7.6 |  |  | exhibiting in-vitro cytotoxicity | exhibiting in-vitro cytotoxicity | exhibiting in-vitro cytotoxicity | exhibiting in-vitro cytotoxicity | exhibiting in-vitro cytotoxicity | exhibiting in-vitro cytotoxicity | exhibiting in-vitro cytotoxicity | exhibiting in-vitro cytotoxicity | 1080 | 
4 |  |  |  |  |  |  |  | COc1cc2cc3c(cc2cc1OCCN1CCN(c2ccccc2)CC1)C(=O)N1CCC[C@H]1C=N3 [19a, 9-Methoxy-8-[2-(4-phenylpiperazino)ethoxy]-(3aS)-1,2,3,13a-tetrahydro-5H-pyrrolo[2,1-c][1,4]naphthodiazepin-5-one] | 6.5 | 7.3 | 9900 | 20 to 11900 | exhibiting in-vitro cytotoxicity | exhibiting in-vitro cytotoxicity | exhibiting in-vitro cytotoxicity | exhibiting in-vitro cytotoxicity | exhibiting in-vitro cytotoxicity | exhibiting in-vitro cytotoxicity | exhibiting in-vitro cytotoxicity | exhibiting in-vitro cytotoxicity | 260 | IC50 [2, 12]: 40 nM; IC50 [2, 13]: 20 to 7320 nM; IC50 ([3]; Homo sapiens, MCF7): 180 nM; IC50 ([4]; Homo sapiens, NCI-H460): 6 nM; IC50 ([5]; Homo sapiens): 300 nM; IC50 ([6]; COS-1): 800 nM; IC50 [7]: 800 to 4320 nM; IC50 [8, 14]: 10 to 5840 nM; IC50 [8, 15]: 10 nM
5 | 320 | 220 | 10 | 240 | 100 | 4320 | 160 | COc1cc2cc3c(cc2cc1OCCN1CCN(c2ccccn2)CC1)N=C[C@@H]1CCCN1C3=O [12a, 8-Methoxy-9-(2-[4-(2-pyridyl)piperazino]ethoxy)-(13aS)-1,2,3,13a-tetrahydro-5H-pyrrolo[2,1-c][1,4]naphthodiazepin-5-one] | 5.8 | 7.1 |  |  | exhibiting in-vitro cytotoxicity | exhibiting in-vitro cytotoxicity | exhibiting in-vitro cytotoxicity | exhibiting in-vitro cytotoxicity | exhibiting in-vitro cytotoxicity | exhibiting in-vitro cytotoxicity | exhibiting in-vitro cytotoxicity | exhibiting in-vitro cytotoxicity | 860 | 

Reference: patent US8759339B2, “Pyrrolo[2,1-c][1,4]naphthodiazepine linked piperazine compounds and a process for the preparation thereof” (Council of Scientific & Industrial Research, priority 2011, dated 2014)
